In the supplement of paper PMC11208160:

Assay: recombinant UMI read abundance after kanamycin selection (control-corrected) (log10(CPM+1)); higher = more efficient recombination; extreme values may be limits of the assay; sequences stand for … in AGTGCAGAGAAAATCGGCCAGTTTTCTCTGCCTGCAGTCCGCATGCCGTGGGACCCCTTGGGTTCTAACCTGTTGCCTAGATTTATGCAGCGGACTGCCTTTCTCCCAAAGTGATAAACCGG…AGGTTGGTTTCACT; site = the 11-nt donor
Procedure, shortened: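 After plating on IPTG (0.07 mM) plus kanamycin, or unselected, in two replicates, recombinant UMIs were PCR-amplified across the donor–target junction and sequenced. The cells were Escherichia coli co-electroporated with a UMI-tagged donor and donor-binding-loop pair library and a target plasmid with a fixed target and T7-inducible IS621 bridge recombinase. Values are log10(CPM+1), with CPM averaged over replicates and scaled by control-derived factors.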

Row | Sequence | recombinant UMI read abundance (log10)
1 | GGCAATTCATGGACCGGTTTTCCCGGTAATCCGTATTTGAA (site GGCAATGCTTT) | 0.0122
2 | GGCAATTCATGGACCGGTTTTCCCGGTAATCCGTATTTGAA (site GGCAATTCTTT) | 0.996
3 | GGCAGAACATGGACCGGTTTTCCCGGTAATCCGTATTTGTG (site GGCAGAACTCA) | 1.3
4 | GGCAGCCCATGGACCGGTTTTCCCGGTAATCCGTATTTGAC (site GGCAGCCCTGT) | 0
5 | GGCAGCGCATGGACCGGTTTTCCCGGTAATCCGTATTTGCT (site GGCAGCGCTAG) | 2.43
6 | GGCAGTCCATGGACCGGTTTTCCCGGTAATCCGTATTTGAA (site GGCAATCCTTT) | 0.00812
7 | GGCAGTCCATGGACCGGTTTTCCCGGTAATCCGTATTTGAA (site GGCACTCCTTT) | 0.018
8 | GGCAGTCCATGGACCGGTTTTCCCGGTAATCCGTATTTGAA (site GGCAGTCCTTT) | 0.191
9 | GGCAGTCCATGGACCGGTTTTCCCGGTAATCCGTATTTGAA (site GGCATTCCTTT) | 0
10 | GGCAGTCCATGGACCGGTTTTCCCGGTAATCCGTATTTGGG (site GGCAGTCCTCC) | 0.00418
11 | GGCAGTGCATGGACCGGTTTTCCCGGTAATCCGTATTTGGA (site GGCAGTGCTTC) | 0.329
12 | GGCATTCCATGGACCGGTTTTCCCGGTAATCCGTATTTGAA (site GGCAATCCTTT) | 0
13 | GGCATTCCATGGACCGGTTTTCCCGGTAATCCGTATTTGAA (site GGCACTCCTTT) | 0.0138
14 | GGCATTCCATGGACCGGTTTTCCCGGTAATCCGTATTTGAA (site GGCAGTCCTTT) | 0.00406
15 | GGCATTCCATGGACCGGTTTTCCCGGTAATCCGTATTTGAA (site GGCATTCCTTT) | 0.29
16 | GGCATTGCATGGACCGGTTTTCCCGGTAATCCGTATTTGGT (site GGCATTGCTAC) | 1.48
17 | GGCATTTCATGGACCGGTTTTCCCGGTAATCCGTATTTGGG (site GGCATTTCTCC) | 0
18 | GGCCAGCCATGGACCGGTTTTCCCGGTAATCCGTATTTGTT (site GGCCAACCTAA) | 0.00333
19 | GGCCAGCCATGGACCGGTTTTCCCGGTAATCCGTATTTGTT (site GGCCACCCTAA) | 0.0285
20 | GGCCAGCCATGGACCGGTTTTCCCGGTAATCCGTATTTGTT (site GGCCAGCCTAA) | 0.00292
21 | GGCCAGCCATGGACCGGTTTTCCCGGTAATCCGTATTTGTT (site GGCCATCCTAA) | 0
22 | GGCCCGACATGGACCGGTTTTCCCGGTAATCCGTATTTGCT (site GGCCCGACTAG) | 1.49
23 | GGCCCTGCATGGACCGGTTTTCCCGGTAATCCGTATTTGTA (site GGCCCTGCTTA) | 0.378
24 | GGCGAACCATGGACCGGTTTTCCCGGTAATCCGTATTTGAA (site GGCGAACCTTT) | 0
25 | GGCGATTCATGGACCGGTTTTCCCGGTAATCCGTATTTGGC (site GGCGATTCTGC) | 1.57

Row | Sequence | recombinant UMI read abundance (log10)
26 | GGCGCAGCATGGACCGGTTTTCCCGGTAATCCGTATTTGGT (site GGCGCAGCTAC) | 0.482
27 | GGCGCGACATGGACCGGTTTTCCCGGTAATCCGTATTTGCC (site GGCGCGACTGG) | 1.35
28 | GGCGGCGCATGGACCGGTTTTCCCGGTAATCCGTATTTGTA (site GGCGGCGCTTA) | 0.781
29 | GGCTACCCATGGACCGGTTTTCCCGGTAATCCGTATTTGTT (site GGCAACCCTAA) | 0.00887
30 | GGCTACCCATGGACCGGTTTTCCCGGTAATCCGTATTTGTT (site GGCCACCCTAA) | 0.268
31 | GGCTACCCATGGACCGGTTTTCCCGGTAATCCGTATTTGTT (site GGCGACCCTAA) | 0.015
32 | GGCTACCCATGGACCGGTTTTCCCGGTAATCCGTATTTGTT (site GGCTACCCTAA) | 0.0101
33 | GGCTAGTCATGGACCGGTTTTCCCGGTAATCCGTATTTGAC (site GGCTAGTCTGT) | 0
34 | GGCTCGTCATGGACCGGTTTTCCCGGTAATCCGTATTTGCA (site GGCTCGTCTTG) | 2.16
35 | GGCTCTACATGGACCGGTTTTCCCGGTAATCCGTATTTGGC (site GGCTCTACTGC) | 0
36 | GGCTCTGCATGGACCGGTTTTCCCGGTAATCCGTATTTGCT (site GGCTCTGCTAG) | 1.66
37 | GGCTTAGCATGGACCGGTTTTCCCGGTAATCCGTATTTGAG (site GGCTTAGCTCT) | 1.13
38 | GGCTTGACATGGACCGGTTTTCCCGGTAATCCGTATTTGCG (site GGCTTGACTCG) | 0.919
39 | GGGAAGACATGGACCGGTTTTCCCGGTAATCCGTATTTGGA (site AGGAAGACTTG) | 0.00654
40 | GGGAAGACATGGACCGGTTTTCCCGGTAATCCGTATTTGGA (site GGGAAGACTTC) | 1.22
41 | GGGAAGACATGGACCGGTTTTCCCGGTAATCCGTATTTGGT (site GGGAAGACTAC) | 0.836
42 | GGGAAGCCATGGACCGGTTTTCCCGGTAATCCGTATTTGTT (site CGGAATCCTAA) | 0
43 | GGGAAGCCATGGACCGGTTTTCCCGGTAATCCGTATTTGTT (site GGGAAGCCTAA) | 0.0967
44 | GGGAAGGCATGGACCGGTTTTCCCGGTAATCCGTATTTGCA (site AGGAAGACTTG) | 0
45 | GGGAAGGCATGGACCGGTTTTCCCGGTAATCCGTATTTGCA (site GGGAAGGCTTG) | 2.86
46 | GGGAATCCATGGACCGGTTTTCCCGGTAATCCGTATTTGAT (site CGGAATCCTAA) | 0
47 | GGGAATCCATGGACCGGTTTTCCCGGTAATCCGTATTTGAT (site GGGAATCCTAT) | 0.145
48 | GGGAATCCATGGACCGGTTTTCCCGGTAATCCGTATTTGTT (site AGGAATCCTAA) | 0
49 | GGGAATCCATGGACCGGTTTTCCCGGTAATCCGTATTTGTT (site CGGAATCCTAA) | 0
50 | GGGAATCCATGGACCGGTTTTCCCGGTAATCCGTATTTGTT (site GGGAATCCTAA) | 0.192

Row | Sequence | recombinant UMI read abundance (log10)
51 | GGGAATCCATGGACCGGTTTTCCCGGTAATCCGTATTTGTT (site TGGAATCCTAA) | 0.0126
52 | GGGAATGCATGGACCGGTTTTCCCGGTAATCCGTATTTGGT (site GGGAATGCTAC) | 0.885
53 | GGGACACCATGGACCGGTTTTCCCGGTAATCCGTATTTGCA (site GGGACACCTTG) | 0
54 | GGGACACCATGGACCGGTTTTCCCGGTAATCCGTATTTGCA (site GGGCCACCTTG) | 0
55 | GGGACACCATGGACCGGTTTTCCCGGTAATCCGTATTTGCA (site GGGGCACCTTG) | 0
56 | GGGACACCATGGACCGGTTTTCCCGGTAATCCGTATTTGCA (site GGGTCACCTTG) | 0
57 | GGGACGTCATGGACCGGTTTTCCCGGTAATCCGTATTTGAC (site GGGACGTCTGT) | 3.2
58 | GGGACGTCATGGACCGGTTTTCCCGGTAATCCGTATTTGCA (site GGGACGTCTTG) | 1.99
59 | GGGACGTCATGGACCGGTTTTCCCGGTAATCCGTATTTGGC (site GGGACGTCTGC) | 2.43
60 | GGGACTACATGGACCGGTTTTCCCGGTAATCCGTATTTGAC (site AGGACTACTGT) | 0
61 | GGGACTACATGGACCGGTTTTCCCGGTAATCCGTATTTGAC (site CGGACTACTGT) | 0
62 | GGGACTACATGGACCGGTTTTCCCGGTAATCCGTATTTGAC (site GGGACTACTGT) | 1.48
63 | GGGACTACATGGACCGGTTTTCCCGGTAATCCGTATTTGAC (site TGGACTACTGT) | 0
64 | GGGACTCCATGGACCGGTTTTCCCGGTAATCCGTATTTGAG (site TACGTATCTTC) | 0.0126
65 | GGGACTCCATGGACCGGTTTTCCCGGTAATCCGTATTTGCG (site GGGACTCCTCG) | 0.509
66 | GGGATAGCATGGACCGGTTTTCCCGGTAATCCGTATTTGTT (site GGGATAGCTAA) | 1.85
67 | GGGCAGGCATGGACCGGTTTTCCCGGTAATCCGTATTTGAG (site GGGCAGGCTCT) | 1.48
68 | GGGCAGGCATGGACCGGTTTTCCCGGTAATCCGTATTTGGG (site GGGCAGGCTCC) | 0.0905
69 | GGGCATACATGGACCGGTTTTCCCGGTAATCCGTATTTGAC (site GGGCATACTGT) | 1.8
70 | GGGCCGTCATGGACCGGTTTTCCCGGTAATCCGTATTTGTA (site GGGCCGTCTTA) | 0.733
71 | GGGCGATCATGGACCGGTTTTCCCGGTAATCCGTATTTGGC (site GGGCGATCTGC) | 1.98
72 | GGGGAGGCATGGACCGGTTTTCCCGGTAATCCGTATTTGAG (site GGGGAGGCTCT) | 0.897
73 | GGGGATTCATGGACCGGTTTTCCCGGTAATCCGTATTTGAT (site GGGGATTCTAT) | 1.72
74 | GGGGCACCATGGACCGGTTTTCCCGGTAATCCGTATTTGCA (site AGGGCACCTTG) | 0
75 | GGGGCACCATGGACCGGTTTTCCCGGTAATCCGTATTTGCA (site CGGGCACCTTG) | 0
